Tests used:
ZSF1 obese rats [1] = test: Fasting insulin determination (ELISA), cardiometabolic syndrome model; assay type: in vivo, rat; settings: 10 weeks of treatment (8 weeks vs. 18 weeks of age), plasma, 6-h fasted, FIG. 6b
Protocol: (§1) Cardiometabolic syndrome model: ZSF1 lean and obese rats of both genders were purchased at the age of 5 weeks from the Charles River Laboratories (Kingston, USA). Eight-week-old ZSF1 obese rats were divided into three weight-matched and equally sized/gender-balanced groups: group 1 received regular drinking water (non-treated control), group 2 received regular drinking water supplemented with 40 mM nicotinamide (i.e. 0.5% w/v), and group 3 was administered the combination of 40 mM nicotinamide and 3 mM spermidine (of synthetical origin) in drinking water for a period of 14 weeks. Water as well as food intake were monitored regularly. Age-matched untreated ZSF1 obese and lean rats served as controls.
Fasted blood samples were collected from the clavicular vena plexus/jugular vein of 6-h fasted (6 AM-12 AM) and lightly anesthetized rats (2% isoflurane and 98% O2), whose body temperature was maintained at 37° C. using a temperature-controlled heating platform. Fasting insulin was measured in plasma using ultrasensitive rat ELISA kits (Crystal Chem) according to the manufacturer's protocol. The sampling and measurement was conducted at the age of 8 weeks (baseline) and at the age of 18 weeks. The fold-change was calculated by dividing the values form 18-weeks old animals and 8-weeks old animals.

ZSF1 obese rats [2] = test: Fasting glucose determination, cardiometabolic syndrome model; assay type: in vivo, rat; settings: 10 weeks of treatment (8 weeks vs. 18 weeks of age), tail vein blood, FIG. 6a
Protocol: as §1
The basal fasting blood glucose level was determined by collecting a drop of blood from the tail vein. Blood droplet was applied to a test strip that was inserted into a glucose analyzer (glucometer, Accu-Chek Performa). The sampling and measurement was conducted at the age of 8 weeks (baseline) and at the age of 18 weeks. The fold-change was calculated by dividing the values form 18-weeks old animals and 8-weeks old animals.

obese rats = test: Intraperitoneal glucose tolerance test, spermidine alone in obese rats; assay type: in vivo, rat; settings: 10 weeks of spermidine alone, 1 g/kg glucose i.p., 12-h fasted, age 18 weeks, compared with control obese rats, FIG. 8
Protocol: Intraperitoneal glucose tolerance test was performed at 6 AM from 12-h fasted rats. During the experiment, rats were singly housed in empty cages without food, water or bed-ding. The basal fasting blood glucose level was determined by collecting a drop of blood from the tail vein. Blood droplet was applied onto a test strip that was inserted into a glucose analyzer (glucometer, Accu-Chek Performa). Rats were then injected intraperitoneally with 1 g of glucose per kg fasting body mass, and blood glucose levels were determined 15, 30, 60, 90 and 120 min after glucose. The sampling and measurement were conducted at the age of 18 weeks.

Aged C57BL/6J male mice [3] = test: Diastolic function by echocardiography, aging model; assay type: in vivo, mouse; settings: 24 mM nicotinamide, with or without 3 mM spermidine, in drinking water for 4 months, FIG. 2a
Protocol: Aging model: Aged C57BL/6J male mice were purchased from the Charles River Laboratories (Sulzfeld, Germany) at the age of 18 months and fed standard chow. Supplementation of 24 mM nicotinamide (i.e. 0.3% w/v, changed two times per week) and of spermidine (i.e. 3 mM final concentration at pH 7.2, changed two times per week) in the regular drinking water was conducted at 20 months of age for a period of 4 months. […] Transthoracic echocardiography was performed using high resolution micro-imaging system equipped with a 24- and 55-MHz linear array transducers for rats and mice, respectively, as described (Eisenberg et al. (2016), Nat Med 22(12): 1428-1438). Briefly, lightly anesthetized mice (0.5% isoflurane and 99.5% 02) were placed in the supine position on a temperature-controlled heating platform to maintain their body temperature at 37° C. Diastolic function was assessed using pulsed-wave and tissue Doppler imaging to determine the ratio between peak early-filling velocity of transmitral flow (E) and the corresponding mitral valve annulus velocity (e′), respectively.

ZSF1 obese rats [4] = test: Lung congestion by gravimetry, cardiometabolic syndrome model; assay type: in vivo, rat; settings: 40 mM nicotinamide, with or without 3 mM spermidine, in drinking water for 14 weeks, FIG. 5b
Protocol: as §1
(§2) The lung was harvested and weighed, obtaining the lung weight (LW). For normalisation, the weight was subsequently divided by the length of the left tibia bone (TL), resulting in the ratio LW/TL.
This measurement was conducted according to the method of item 2.4.1.

[5] = tested on: Dahl salt-sensitive male rats; test: Diastolic function by hemodynamic pressure-volume measurement, salt-induced hypertensive heart disease model; assay type: in vivo, rat; settings: Dahl rats on high-salt diet; 40 mM nicotinamide in drinking water for 12 weeks; FIG. 2b
Excerpt: Salt-induced hypertensive heart disease model: Dahl salt-sensitive male rats (n=24) were purchased at the age of 4 weeks from the Charles River Laboratories (Kingston, USA). Eight rats were fed the low-salt diet containing 0.3% NaCl (AIN-76A, Research Diets, Inc. USA) throughout the experiment and served as a healthy control group. Low-salt diet was fed also to the remaining 16 Dahl rats until the age of 7 weeks, when the diet was switched to a high-salt diet (AIN-76A with 8% NaCl, Research Diets, Inc. USA), and the rats were divided into two weight-matched cohorts each consisting of two equally sized groups (n=8 animals per group); group 1 received regular drinking water (non-treated control), while group 2 received regular drinking water supplemented with 40 mM nicotinamide (i.e. 0.5% w/v) for a period of 12 weeks. […] The heart rate was monitored by an electrocardiogram (Animal Bio Amp, FE136) and kept at 350-400 bpm throughout the experiment. […] Signals were continuously acquired (MPVS PL3508 PowerLab 8/35), digitized at 2 kHz (ML880 PowerLab 16/30), and analyzed offline (LabChart 8 Pro). After a stabilization period of 10 min, left ventricular end-diastolic pressure (EDP), a baseline parameter of diastolic function, was measured and aver-aged from ten consecutive beats, with ventilation suspended at end-expiration. […]

ZSF1 obese rats [6] = test: Exercise capacity by exercise calorimetry, cardiometabolic syndrome model; assay type: in vivo, rat; settings: 40 mM nicotinamide, with or without 3 mM spermidine, in drinking water for 14 weeks, treadmill peak effort, FIG. 4b
Protocol: Eight-week-old ZSF1 obese rats were divided into three weight-matched and equally sized/gender-balanced groups: group 1 received regular drinking water (non-treated control), group 2 received regular drinking water supplemented with 40 mM nicotinamide (i.e. 0.5% w/v), and group 3 was administered the combination of 40 mM nicotinamide and 3 mM spermidine (of synthetical origin) in drinking water for a period of 14 weeks. Water as well as food intake were monitored regularly. Age-matched untreated ZSF1 obese and lean rats served as controls. Rats were subjected to peak effort on a closed-chamber treadmill at an inclination of 10° coupled to a gas analyzer (CaloTreadmill). […] The exercise session ended at the maximal fatigue, which was defined as the lack of ability to maintain running speed despite being in contact with the electric shock for more than 5 seconds. Calorimetric parameters, such as relative oxygen consumption (ΔVO2) and carbon dioxide production (ΔVCO2) were continuously measured at 0.2 Hz intervals during treadmill running. Maximal oxygen consumption (VO2max) and run distance were determined at the point at which oxygen uptake reached a plateau during exhaustive workout/exercise.

ZSF1 obese rats [7] = test: Cardiac hypertrophy by gravimetry, cardiometabolic syndrome model; assay type: in vivo, rat; settings: 40 mM nicotinamide, with or without 3 mM spermidine, in drinking water for 14 weeks, FIG. 3c
Protocol: Cardiometabolic syndrome model: ZSF1 lean and obese rats of both genders were purchased at the age of 5 weeks from the Charles River Laboratories (Kingston, USA). Eight-week-old ZSF1 obese rats were divided into three weight-matched and equally sized/gender-balanced groups: group 1 received regular drinking water (non-treated control), group 2 received regular drinking water supplemented with 40 mM nicotinamide (i.e. 0.5% w/v), and group 3 was administered the combination of 40 mM nicotinamide and 3 mM spermidine (of synthetical origin) in drinking water for a period of 14 weeks. Water as well as food intake were monitored regularly. Age-matched untreated ZSF1 obese and lean rats served as controls. The heart was harvested and weighed, obtaining the heart weight (HW). For normalisation, the weight was subsequently divided by the length of the left tibia bone (TL), resulting in the ratio HW/TL.

ZSF1 obese rats [8] = test: Diastolic function by echocardiography, cardiometabolic syndrome model; assay type: in vivo, rat; settings: 40 mM nicotinamide, with or without 3 mM spermidine, in drinking water for 14 weeks, FIG. 2c
Protocol: Cardiometabolic syndrome model: ZSF1 lean and obese rats of both genders were purchased at the age of 5 weeks from the Charles River Laboratories (Kingston, USA). Eight-week-old ZSF1 obese rats were divided into three weight-matched and equally sized/gender-balanced groups: group 1 received regular drinking water (non-treated control), group 2 received regular drinking water supplemented with 40 mM nicotinamide (i.e. 0.5% w/v), and group 3 was administered the combination of 40 mM nicotinamide and 3 mM spermidine (of synthetical origin) in drinking water for a period of 14 weeks. Water as well as food intake were monitored regularly. Age-matched untreated ZSF1 obese and lean rats served as controls. Transthoracic echocardiography was performed using high resolution micro-imaging system equipped with a 24- and 55-MHz linear array transducers for rats and mice, respectively, as described (Eisenberg et al. (2016), Nat Med 22(12): 1428-1438). […] Diastolic function was assessed using pulsed-wave and tissue Doppler imaging to determine the ratio between peak early-filling velocity of transmitral flow (E) and the corresponding mitral valve annulus velocity (e′), respectively. This measurement was conducted according to the method of item 2.1.1, with the exception that the rats were lightly anesthetized with 1-2% isoflurane and 98-99% 02.

ZSF1 obese rats [9] = test: Myocardial nicotinamide and NAD+ levels by mass spectrometry, cardiometabolic syndrome model; assay type: in vivo, rat; settings: 40 mM nicotinamide, with or without 3 mM spermidine, in drinking water for 14 weeks
Protocol: Cardiometabolic syndrome model: ZSF1 lean and obese rats of both genders were purchased at the age of 5 weeks from the Charles River Laboratories (Kingston, USA). Eight-week-old ZSF1 obese rats were divided into three weight-matched and equally sized/gender-balanced groups: group 1 received regular drinking water (non-treated control), group 2 received regular drinking water supplemented with 40 mM nicotinamide (i.e. 0.5% w/v), and group 3 was administered the combination of 40 mM nicotinamide and 3 mM spermidine (of synthetical origin) in drinking water for a period of 14 weeks. Water as well as food intake were monitored regularly. Age-matched untreated ZSF1 obese and lean rats served as controls. The mass spectrometric metabolomic analysis of nicotinamide and NAD^+ in rat myocardium was performed as described previously ([…]., et al. Aging (Albany NY) 11(2019):4783-4800). About 30 mg of tissue was weighed and solubilized in tubes with ceramic beads using 1 ml of cold lysate buffer (methanol:water ratio was 9:1; at -20° C.). Tissue samples were then homogenized three times for 20 s at 5.500 rpm using a Precellys 24 tissue homogenizer followed by centrifugation for 10 min at 15.000 g and 4° C. […] Peak detection and integration of the analytes were performed using the Agilent Mass Hunter quantitative software (B.07.01). […]

[10] = literature: Gale et al. 2004, Chen et al. 2015, Poyan et al. 2018; cited from earlier work
[11] = tested on: Dahl salt-sensitive male rats; test: Cardiac hypertrophy by gravimetry, salt-induced hypertensive heart disease model; assay type: in vivo, rat; settings: Dahl rats on high-salt diet; 40 mM nicotinamide in drinking water for 12 weeks; FIG. 3b
Excerpt: Salt-induced hypertensive heart disease model: Dahl salt-sensitive male rats (n=24) were purchased at the age of 4 weeks from the Charles River Laboratories (Kingston, USA). Eight rats were fed the low-salt diet containing 0.3% NaCl (AIN-76A, Research Diets, Inc. USA) throughout the experiment and served as a healthy control group. Low-salt diet was fed also to the remaining 16 Dahl rats until the age of 7 weeks, when the diet was switched to a high-salt diet (AIN-76A with 8% NaCl, Research Diets, Inc. USA), and the rats were divided into two weight-matched cohorts each consisting of two equally sized groups (n=8 animals per group); group 1 received regular drinking water (non-treated control), while group 2 received regular drinking water supplemented with 40 mM nicotinamide (i.e. 0.5% w/v) for a period of 12 weeks. The heart was harvested and weighed, obtaining the heart weight (HW). For normalisation, the weight was subsequently divided by the length of the left tibia bone (TL), resulting in the ratio HW/TL.

[12] = tested on: Dahl salt-sensitive male rats; test: Lung congestion by gravimetry, salt-induced hypertensive heart disease model; assay type: in vivo, rat; settings: Dahl rats on high-salt diet; 40 mM nicotinamide in drinking water for 12 weeks; FIG. 5a
Excerpt: Salt-induced hypertensive heart disease model: Dahl salt-sensitive male rats (n=24) were purchased at the age of 4 weeks from the Charles River Laboratories (Kingston, USA). Eight rats were fed the low-salt diet containing 0.3% NaCl (AIN-76A, Research Diets, Inc. USA) throughout the experiment and served as a healthy control group. Low-salt diet was fed also to the remaining 16 Dahl rats until the age of 7 weeks, when the diet was switched to a high-salt diet (AIN-76A with 8% NaCl, Research Diets, Inc. USA), and the rats were divided into two weight-matched […] groups (n=8 animals per group); group 1 received regular drinking water (non-treated control), while group 2 received regular drinking water supplemented with 40 mM nicotinamide (i.e. 0.5% w/v) for a period of 12 weeks.
as §2

Aged C57BL/6J male mice [13] = test: Cardiac hypertrophy by gravimetry, aging model; assay type: in vivo, mouse; settings: 24 mM nicotinamide, with or without 3 mM spermidine, in drinking water for 4 months, FIG. 3a
Protocol: Aging model: Aged C57BL/6J male mice were purchased from the Charles River Laboratories (Sulzfeld, Germany) at the age of 18 months and fed standard chow. Supplementation of 24 mM nicotinamide (i.e. 0.3% w/v, changed two times per week) and of spermidine (i.e. 3 mM final concentration at pH 7.2, changed two times per week) in the regular drinking water was conducted at 20 months of age for a period of 4 months. […] The heart was harvested and weighed, obtaining the heart weight (HW). For normalisation, the weight was subsequently divided by the length of the left tibia bone (TL), resulting in the ratio HW/TL.

[14] = tested on: Dahl salt-sensitive male rats; test: Exercise capacity by exercise calorimetry, salt-induced hypertensive heart disease model; assay type: in vivo, rat; settings: Dahl rats on high-salt diet; 40 mM nicotinamide in drinking water for 12 weeks; treadmill peak effort; FIG. 4a
Excerpt: Salt-induced hypertensive heart disease model: Dahl salt-sensitive male rats (n=24) were purchased at the age of 4 weeks from the Charles River Laboratories (Kingston, USA). Eight rats were fed the low-salt diet containing 0.3% NaCl (AIN-76A, Research Diets, Inc. USA) throughout the experiment and served as a healthy control group. Low-salt diet was fed also to the remaining 16 Dahl rats until the age of 7 weeks, when the diet was switched to a high-salt diet (AIN-76A with 8% NaCl, Research Diets, Inc. USA), and the rats were divided into two weight-matched cohorts each consisting of two equally sized groups (n=8 animals per group); group 1 received regular drinking water (non-treated control), while group 2 received regular drinking water supplemented with 40 mM nicotinamide (i.e. 0.5% w/v) for a period of 12 weeks. Rats were subjected to peak effort on a closed-chamber treadmill at an inclination of 10° coupled to a gas analyzer (CaloTreadmill). […] Calorimetric parameters, such as relative oxygen consumption (ΔVO2) and carbon dioxide production (ΔVCO2) were continuously measured at 0.2 Hz intervals during treadmill running. Maximal oxygen consumption (VO2max) and run distance were determined at the point at which oxygen uptake reached a plateau during exhaustive workout/exercise.

Row | Compound | fasting insulin level (fold-change 18 weeks vs 8 weeks) (ZSF1 obese rats [1]) | fasting glucose level (fold-change 18 weeks vs 8 weeks) (ZSF1 obese rats [2]) | glucose clearance curve (also as AUC) (obese rats) | quotient E/e' (measure of diastolic dysfunction) (Aged C57BL/6J male mice [3]) | ratio LW/TL (lung weight to tibia length), measure of lung congestion (ZSF1 obese rats [4]) | left ventricular end-diastolic pressure (EDP), marker for diastolic dysfunction [5] | maximal oxygen consumption (VO2max) (ZSF1 obese rats [6]) | run distance (ZSF1 obese rats [6]) | heart weight-to-tibia length ratio (HW/TL), marker of cardiac hypertrophy (ZSF1 obese rats [7]) | quotient E/e' (measure of diastolic dysfunction) (ZSF1 obese rats [8]) | myocardial level of nicotinamide (NAM) (ZSF1 obese rats [9]; FIG. 1 left) | myocardial level of nicotinamide adenine dinucleotide+ (NAD+) (ZSF1 obese rats [9]; FIG. 1 right) | tolerability at high doses during chronical administration [10] | heart weight-to-tibia length ratio (HW/TL), marker of cardiac hypertrophy [11] | ratio LW/TL (lung weight to tibia length), measure of lung congestion [12] | heart weight-to-tibia length ratio (HW/TL), marker of cardiac hypertrophy (Aged C57BL/6J male mice [13]) | maximal oxygen consumption (VO2max) [14] | run distance [14]
1 | NCCCCNCCCN [spermidine] | no significant influence | no significant influence | did not change | – | – | – | – | – | – | – | – | – | – | – | – | – | – | –
2 | NC(=O)c1cccnc1 [nicotinamide] | increased | increased | – | reduced | compensated this effect | reduced | increased | increased | reduced | reduced | significantly increased | significantly increased | well-tolerated | reduced to levels similar to the control | decrease | reduced | increased | increased
